The test has as its target KRas/Son of Sevenless Homolog 1 (Homo sapiens, UniProt P01116+Q07889). Briefly: Inhibition of KRAS G12D mutant/SOS1 (unknown origin) interaction by TR-FRET assay.

The structures appear in SMILES notation.

Chain of KRas/Son of Sevenless Homolog 1 (P01116 whole entry G12D): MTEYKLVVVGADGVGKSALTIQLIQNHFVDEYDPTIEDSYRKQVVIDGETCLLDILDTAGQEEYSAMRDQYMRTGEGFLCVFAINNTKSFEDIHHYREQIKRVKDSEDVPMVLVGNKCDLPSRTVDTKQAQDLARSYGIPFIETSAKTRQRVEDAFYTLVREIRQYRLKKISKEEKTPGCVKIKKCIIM
Chain of KRas/Son of Sevenless Homolog 1 (Q07889 whole entry): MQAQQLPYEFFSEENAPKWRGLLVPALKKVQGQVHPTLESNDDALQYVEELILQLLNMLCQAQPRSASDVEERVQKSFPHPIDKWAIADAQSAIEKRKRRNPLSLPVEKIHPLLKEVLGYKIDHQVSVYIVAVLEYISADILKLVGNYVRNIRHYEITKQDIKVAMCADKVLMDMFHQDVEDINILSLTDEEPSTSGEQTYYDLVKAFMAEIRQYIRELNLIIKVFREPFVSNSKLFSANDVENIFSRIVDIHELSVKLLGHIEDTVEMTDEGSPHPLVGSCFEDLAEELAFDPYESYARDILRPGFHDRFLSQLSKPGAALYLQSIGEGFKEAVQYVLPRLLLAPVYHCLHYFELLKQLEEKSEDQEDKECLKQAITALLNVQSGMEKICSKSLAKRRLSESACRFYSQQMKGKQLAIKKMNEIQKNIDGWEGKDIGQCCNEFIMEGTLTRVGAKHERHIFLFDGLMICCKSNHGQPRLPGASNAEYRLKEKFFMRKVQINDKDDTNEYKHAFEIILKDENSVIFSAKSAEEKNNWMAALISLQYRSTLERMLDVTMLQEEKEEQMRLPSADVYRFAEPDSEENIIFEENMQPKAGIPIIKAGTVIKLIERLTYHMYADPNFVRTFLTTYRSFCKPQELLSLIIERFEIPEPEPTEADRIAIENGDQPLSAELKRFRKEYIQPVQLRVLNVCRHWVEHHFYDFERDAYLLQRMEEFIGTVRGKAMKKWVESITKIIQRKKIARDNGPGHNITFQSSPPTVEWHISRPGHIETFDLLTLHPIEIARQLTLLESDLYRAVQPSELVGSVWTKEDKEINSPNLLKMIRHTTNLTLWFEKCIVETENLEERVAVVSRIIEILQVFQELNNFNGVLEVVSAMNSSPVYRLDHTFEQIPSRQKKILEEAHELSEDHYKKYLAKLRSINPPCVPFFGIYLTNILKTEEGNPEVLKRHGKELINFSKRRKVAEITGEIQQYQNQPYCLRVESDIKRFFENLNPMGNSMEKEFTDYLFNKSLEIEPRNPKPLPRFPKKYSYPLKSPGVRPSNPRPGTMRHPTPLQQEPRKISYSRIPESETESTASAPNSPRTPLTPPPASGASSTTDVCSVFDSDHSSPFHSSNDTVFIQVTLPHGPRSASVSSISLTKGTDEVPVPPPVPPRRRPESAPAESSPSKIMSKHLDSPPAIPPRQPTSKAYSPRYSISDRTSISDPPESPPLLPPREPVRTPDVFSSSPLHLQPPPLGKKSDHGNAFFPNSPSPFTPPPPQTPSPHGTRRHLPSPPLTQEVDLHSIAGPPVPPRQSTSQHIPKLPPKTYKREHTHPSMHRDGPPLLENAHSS

Molecule `Cn1cnc(Cn2ccc3ccc(CNCc4[nH]c5ccccc5c4[C@H]4NC(=O)c5ccc(O)cc54)cc32)c1` came in with an IC50 of 450 nM.

The record behind these values is BindingDB's records for PubMed 39167893 (University of Petroleum and Energy Studies).
